Assay results from the NIST ThermoML archive (doi:10.1021/je060271a).

Conditions: 343.15 K, Liquid, Vibrating tube method

CCCCCCCC(=O)OCC(COC(=O)CCCCCCC)(COC(=O)CCCCCCC)COC(=O)CCCCCCC [pentaerythritol tetraoctanoate]
Conditions	mass density [kg/m3]
22002 kPa	941.5
22028 kPa	941.4
22054 kPa	941.3
22085 kPa	941.4
22111 kPa	941.4
22142 kPa	941.5
22168 kPa	941.4
22195 kPa	941.6
22221 kPa	941.4
22248 kPa	941.5
22280 kPa	941.6
22307 kPa	941.6
22338 kPa	941.5
22365 kPa	941.8
22392 kPa	941.7
22424 kPa	941.7
22451 kPa	941.7
22478 kPa	941.5
22510 kPa	941.7
22537 kPa	941.7
22564 kPa	941.8
22599 kPa	941.9
22626 kPa	941.8
22654 kPa	941.9
22682 kPa	941.9
22709 kPa	941.7
22742 kPa	941.8
22770 kPa	941.8
22798 kPa	941.8
22831 kPa	942
22858 kPa	941.8
22892 kPa	941.9
22920 kPa	941.9
22949 kPa	942
23008 kPa	942
23042 kPa	941.9
23070 kPa	942.1
23098 kPa	942.1
23132 kPa	942.1
23161 kPa	942.1
23190 kPa	942.1
23224 kPa	942.1
23253 kPa	942.1
23281 kPa	942.2
23316 kPa	942.2
23344 kPa	942.1
23374 kPa	942.3
23409 kPa	942.2
23438 kPa	942.4
23468 kPa	942.1
23497 kPa	942.3
23532 kPa	942.2
23562 kPa	942.4
23597 kPa	942.4
23627 kPa	942.3
23656 kPa	942.5
23686 kPa	942.4
23722 kPa	942.5
23753 kPa	942.5
23777 kPa	942.5
23819 kPa	942.5
23849 kPa	942.6
23886 kPa	942.6
23916 kPa	942.5
23946 kPa	942.5
23984 kPa	942.5
24014 kPa	942.6
24045 kPa	942.8
24076 kPa	942.6
24113 kPa	942.7
24144 kPa	942.6
24182 kPa	942.7
24245 kPa	942.8
24283 kPa	942.8
24314 kPa	942.8
24345 kPa	942.8
24377 kPa	942.9
24415 kPa	942.8
24447 kPa	942.9
24480 kPa	942.9
24518 kPa	943
24550 kPa	942.9
24589 kPa	943
24622 kPa	943.1
24655 kPa	943.1
24688 kPa	943.1
24721 kPa	943
24761 kPa	943.1
24794 kPa	943.1
24828 kPa	943.1
24867 kPa	943.1
24894 kPa	943.3
24934 kPa	943.3
24961 kPa	943.1
24994 kPa	943.2
25028 kPa	943.2
25069 kPa	943.3
25097 kPa	943.2
25138 kPa	943.4
25185 kPa	943.5
25226 kPa	943.3
25260 kPa	943.3
25294 kPa	943.5
25335 kPa	943.5
25370 kPa	943.5
25404 kPa	943.5
25445 kPa	943.6
25480 kPa	943.5
25523 kPa	943.6
25553 kPa	943.7
25596 kPa	943.5
25632 kPa	943.8
25667 kPa	943.6
25703 kPa	943.7
25746 kPa	943.8
25781 kPa	943.7
25824 kPa	943.7
25860 kPa	943.7
25896 kPa	943.8
25933 kPa	944
25977 kPa	943.9
26014 kPa	943.9
26054 kPa	943.9
26091 kPa	943.9
26135 kPa	943.9
26172 kPa	944
26210 kPa	944.2
26247 kPa	944.1
26292 kPa	944.1
26329 kPa	944.1
26367 kPa	944.2
26412 kPa	944.1
26449 kPa	944.1
26495 kPa	944.1
26534 kPa	944.1
26573 kPa	944
26612 kPa	944.2
26696 kPa	944.4
26735 kPa	944.4
26781 kPa	944.3
26820 kPa	944.4
26859 kPa	944.4
26906 kPa	944.4
26945 kPa	944.4
26985 kPa	944.4
27032 kPa	944.6
27072 kPa	944.4
27113 kPa	944.7
27160 kPa	944.5
27200 kPa	944.7
27241 kPa	944.7
27290 kPa	944.7
27331 kPa	944.6
27371 kPa	944.7
27412 kPa	944.8
27462 kPa	944.7
27503 kPa	944.8
27544 kPa	944.8
27594 kPa	944.9
27637 kPa	944.8
27680 kPa	944.9
27721 kPa	944.9
27772 kPa	945
27815 kPa	945.1
27857 kPa	945
27909 kPa	945
27951 kPa	945
28003 kPa	945
28046 kPa	945.1
28089 kPa	945.1
28141 kPa	945.3
28185 kPa	945.2
28231 kPa	945.3
28277 kPa	945.4
28332 kPa	945.4
28378 kPa	945.4
28426 kPa	945.4
28478 kPa	945.5
28513 kPa	945.4
28545 kPa	945.5
28583 kPa	945.4
28615 kPa	945.4
28647 kPa	945.5
28680 kPa	945.5
28720 kPa	945.7
28753 kPa	945.6
28786 kPa	945.6
28818 kPa	945.8
28858 kPa	945.7
28890 kPa	945.7
28923 kPa	945.7
28963 kPa	945.7
28996 kPa	945.8
29036 kPa	945.8
29070 kPa	945.9
29104 kPa	945.8
29138 kPa	945.9
29179 kPa	945.9
29207 kPa	945.8
29247 kPa	946
29281 kPa	945.9
29321 kPa	945.9
29355 kPa	946
29389 kPa	946
29424 kPa	946
29465 kPa	946
29500 kPa	946
29534 kPa	946.1
29570 kPa	946.1
29612 kPa	946.1
29648 kPa	946.2
29685 kPa	946.2
29720 kPa	946.2
29754 kPa	946.3
29797 kPa	946.2
29832 kPa	946.2
29874 kPa	946.2
29910 kPa	946.3
29945 kPa	946.3
29987 kPa	946.4
30024 kPa	946.4
30060 kPa	946.5
30096 kPa	946.4
30139 kPa	946.4
30175 kPa	946.5
30212 kPa	946.4
30255 kPa	946.6
30291 kPa	946.5
30327 kPa	946.7
30371 kPa	946.5
30525 kPa	946.7
30562 kPa	946.8
30607 kPa	946.7
30646 kPa	946.7
30682 kPa	946.8
30727 kPa	946.8
30764 kPa	946.9
30802 kPa	946.8
30847 kPa	946.8
30885 kPa	946.9
30923 kPa	947
31006 kPa	946.9
31045 kPa	947
31091 kPa	947
31130 kPa	947
31169 kPa	947.2
31208 kPa	947.1
31255 kPa	947.1
31294 kPa	947.2
31341 kPa	947.1
31380 kPa	947.2
31411 kPa	947.1
31459 kPa	947.2
31506 kPa	947.2
31538 kPa	947.4
31586 kPa	947.3
31633 kPa	947.5
31674 kPa	947.4
31717 kPa	947.3
31758 kPa	947.5
31807 kPa	947.4
31848 kPa	947.5
31898 kPa	947.5
31942 kPa	947.5
31985 kPa	947.6
32036 kPa	947.6
32074 kPa	947.7
32104 kPa	947.6
32141 kPa	947.6
32172 kPa	947.8
32204 kPa	947.8
32242 kPa	947.7
32273 kPa	947.7
32305 kPa	947.9
32342 kPa	947.7
32374 kPa	947.9
32405 kPa	947.8
32443 kPa	947.8
32475 kPa	947.8
32507 kPa	947.8
32545 kPa	947.9
32577 kPa	947.9
32610 kPa	948
32644 kPa	948
32671 kPa	948
32710 kPa	948
32736 kPa	948.1
32762 kPa	948.1
32840 kPa	948
32885 kPa	948.1
32925 kPa	948
32958 kPa	948.2
32991 kPa	948.3
33030 kPa	948.3
33064 kPa	948.3
33099 kPa	948.3
